The record followed here is patent US12503436B2, “Compounds and compositions for treating conditions associated with STING activity” (NOVARTIS PHARMA AG, priority 2021, dated 2025).

By EC50 is commonly meant the concentration at which the effect is half-maximal.

The target of this experiment is STING (Homo sapiens, UniProt Q86WV6, G230A/H232R/R293Q/R71H). As to the kind of experiment: STING reporter assay in THP1-Dual KO-IFNAR2 cells (2′3′cGAMP stimulation, luciferase reporter). Conditions: 15 μM 2′3′cGAMP stimulation, 24 h, read-out: Pharmaron, THP1_IFNAR2 STING 24 h Luci Normalized: GeoMean EC50. The format is cell-based. In short, it runs like this: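 EC50 from secreted luciferase (QUANTI-Luc Plus luminescence of supernatant) after 24 h at 37 °C, 5% CO2. Cells: THP1-Dual KO-IFNAR2, treated with compound (0.0017-100 μM final) plus lipofected 2′3′cGAMP at 15 μM final.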
(In general: A reporter such as luciferase makes a cellular process visible.)

Chain of STING (Q86WV6 whole entry R71H/G230A/H232R/R293Q): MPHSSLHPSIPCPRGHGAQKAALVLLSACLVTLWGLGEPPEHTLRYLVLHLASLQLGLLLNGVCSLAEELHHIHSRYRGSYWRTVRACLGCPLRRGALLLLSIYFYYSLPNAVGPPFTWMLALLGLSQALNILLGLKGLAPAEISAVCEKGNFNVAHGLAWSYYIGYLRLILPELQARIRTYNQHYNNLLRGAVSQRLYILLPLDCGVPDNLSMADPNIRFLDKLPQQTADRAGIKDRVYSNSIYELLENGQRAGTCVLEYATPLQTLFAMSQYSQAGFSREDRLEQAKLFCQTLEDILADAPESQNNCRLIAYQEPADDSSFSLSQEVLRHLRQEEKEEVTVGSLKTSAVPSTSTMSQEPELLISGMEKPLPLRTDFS

For the compound `O=C(Nc1c[nH]c2ccc(CCOc3ccc(C(F)(F)F)cc3)cc12)C1CC(F)(F)C1` [Compound 388, 3,3-difluoro-N-(5-(2-(4-(trifluoromethyl)phenoxy)ethyl)-1H-indol-3-yl)cyclobutane-1-carboxamide], the EC50 is 200 to 1000 nM.

For `CC(=O)Nc1c[nH]c2ccc(CCOc3cncc(C(F)(F)F)c3)cc12` [Compound 481, N-[5-(2-{[5-(trifluoromethyl)pyridin-3-yl]oxy}ethyl)-1H-indol-3-yl]acetamide], the EC50 lay in the range of 1000 to 5000 nM.

Regarding `CC1(C(=O)Nc2c[nH]c3ccc(OCC[C@@H]4C[C@@H]5CN(CC(F)(F)F)C[C@@H]5C4)cc23)CCCO1` (stereo partly drawn) [Compound 160, 2-methyl-N-(5-(2-((3aR,5r,6aS)-2-(2,2,2-trifluoroethyl)octahydrocyclopenta[c]pyrrol-5-yl)ethoxy)-1H-indol-3-yl)tetrahydrofuran-2-carboxamide], the EC50 was in the range of 200 to 1000 nM.

In the case of `COCC(=O)Nc1c[nH]c2ccc(COc3ccc(C(F)(F)F)cc3)cc12` [Compound 273, 2-methoxy-N-(5-((4-(trifluoromethyl)phenoxy)methyl)-1H-indol-3-yl)acetamide], the EC50 lay within 40 to 200 nM.

Turning to `CC(C)(C)CC(=O)Nc1c[nH]c2ccc(O[C@H]3C[C@@H](c4ccc(C(F)(F)F)cc4)C3)cc12` [Compound 157, 3,3-dimethyl-N-(5-(cis-3-(4-(trifluoromethyl)phenyl)cyclobutoxy)-1H-indol-3-yl)butanamide], the EC50 was in the range of 40 to 200 nM.

In the case of `CC(=O)CCc1ccc(OCCc2ccc3[nH]cc(NC(C)=O)c3c2)cc1` [Compound 549, N-(5-(2-(4-(3-oxobutyl)phenoxy)ethyl)-1H-indol-3-yl)acetamide], the EC50 is 1000 to 5000 nM.

On to `O=C(Nc1c[nH]c2ccc(O[C@H]3C[C@@H](c4ccc(C(F)(F)F)nc4)C3)cc12)[C@H]1C[C@H](CO)C1` [Compound 551, trans-3-(hydroxymethyl)-N-(5-(cis-3-(6-(trifluoromethyl)pyridin-3-yl)cyclobutoxy)-1H-indol-3-yl)cyclobutane-1-carboxamide], for which the EC50 was 200 to 1000 nM.

Consider `O=C(Nc1c[nH]c2ccc(OCCc3cnc(N4CCC(F)(F)CC4)c(F)c3)cc12)C1CC1` [Compound 183, N-(5-(2-(6-(4,4-difluoropiperidin-1-yl)-5-fluoropyridin-3-yl)ethoxy)-1H-indol-3-yl)cyclopropanecarboxamide], for which the EC50 was in the range of 200 to 1000 nM.

As for `CC(=O)Nc1c[nH]c2ccc(OC3CN(c4ccc(C(F)(F)F)cc4)C3)cc12` [Compound 233, N-(5-((1-(4-(trifluoromethyl)phenyl)azetidin-3-yl)oxy)-1H-indol-3-yl)acetamide], the EC50 lay within 40 to 200 nM.

For `CC(=O)Nc1c[nH]c2ccc(CCOc3ccc(C4CC(F)(F)C4)cc3)cc12` [Compound 225, N-(5-(2-(4-(3,3-difluorocyclobutyl)phenoxy)ethyl)-1H-indol-3-yl)acetamide], the EC50 lay within 40 to 200 nM.

Consider `C[C@]1(C(=O)Nc2c[nH]c3ccc(OCCc4ccc(C(F)(F)F)cc4)cc23)C[C@@H](O)C1` [Compound 445, (cis)-3-hydroxy-1-methyl-N-(5-(4-(trifluoromethyl)phenethoxy)-1H-indol-3-yl)cyclobutane-1-carboxamide], for which the EC50 was in the range of 40 to 200 nM.

As to `CC(=O)Nc1c[nH]c2ccc(COC[C@@H]3[C@H]4CN(CC(F)(F)F)C[C@@H]34)cc12` [Compound 274, N-(5-((((1R,5S,6r)-3-(2,2,2-trifluoroethyl)-3-azabicyclo[3.1.0]hexan-6-yl)methoxy)methyl)-1H-indol-3-yl)acetamide], the EC50 is 1000 to 5000 nM.

Take `CC1(C(=O)Nc2c[nH]c3ccc(O[C@H]4C[C@H](c5ccc(C(F)(F)F)cc5)C4)cc23)CNC1` [Compound 567, 3-methyl-N-(5-(trans-3-(4-(trifluoromethyl)phenyl)cyclobutoxy)-1H-indol-3-yl)azetidine-3-carboxamide]: the EC50 fell in the range of 1000 to 5000 nM.

Consider `C[C@H]1C[C@H](C(=O)Nc2c[nH]c3ccc(OCCc4ccc(C(F)(F)F)cc4)cc23)C1` [Compound 205, trans-3-methyl-N-(5-(4-(trifluoromethyl)phenethoxy)-1H-indol-3-yl)cyclobutane-1-carboxamide], for which the concentration for a half-maximal effect (EC50) lay in the range of 40 to 200 nM.

On to `CC1(C(=O)Nc2c[nH]c3ccc(O[C@H]4C[C@@H](c5ccc(C(F)(F)F)cc5)C4)cc23)CCCO1` (stereo partly drawn) [Compound 358, 2-methyl-N-(5-(cis-3-(4-(trifluoromethyl)phenyl)cyclobutoxy)-1H-indol-3-yl)tetrahydrofuran-2-carboxamide], for which the EC50 is 1000 to 5000 nM.

For the compound `COC(=O)C(Cc1ccc(C(F)(F)F)cc1)Cc1ccc2[nH]cc(NC(C)=O)c2c1` (stereo not drawn) [Compound 527, methyl 3-(3-acetamido-1H-indol-5-yl)-2-(4-(trifluoromethyl)benzyl)propanoate], the EC50 is 1000 to 5000 nM.

With `CC(=O)N[C@H]1C[C@](C)(C(=O)Nc2c[nH]c3ccc(O[C@H]4C[C@@H](c5ccc(C(F)(F)F)cc5)C4)cc23)C1` [Compound 413, trans-3-acetamido-1-methyl-N-(5-(cis-3-(4-(trifluoromethyl)phenyl)cyclobutoxy)-1H-indol-3-yl)cyclobutane-1-carboxamide], the EC50 lay within 1000 to 5000 nM.

On to `CC(=O)Nc1c[nH]c2ccc(CCOc3ccc(Cl)cc3C(F)(F)F)cc12` [Compound 450, N-(5-{2-[4-chloro-2-(trifluoromethyl)phenoxy]ethyl}-1H-indol-3-yl)acetamide], for which the EC50 lay within 200 to 1000 nM.

Turning to `O=C(Nc1c[nH]c2ccc(O[C@H]3C[C@H](c4ccc(C(F)(F)F)cc4)C3)cc12)C1CNC1` [Compound 459, N-{5-[(1R, 3R)-3-[4-(trifluoromethyl)phenyl]cyclobutoxy]-1H-indol-3-yl}azetidine-3-carboxamide], the EC50 was in the range of 5000 to 100000 nM.

`CC(=O)Nc1c[nH]c2ccc(OC[C@@H]3[C@H]4CN(CC(F)(F)F)C[C@@H]34)cc12` [Compound 120, N-(5-(((1R,5S,6r)-3-(2,2,2-trifluoroethyl)-3-azabicyclo[3.1.0]hexan-6-yl)methoxy)-1H-indol-3-yl)acetamide]: the EC50 was in the range of 5000 to 100000 nM.

Consider `O=C(Nc1c[nH]c2ccc(CCOc3ccc(C(F)(F)F)cc3)cc12)[C@H]1C[C@@H](O)C1` [Compound 179, (1S,3S)-3-hydroxy-N-(5-{2-[4-(trifluoromethyl)phenoxy]ethyl}-1H-indol-3-yl)cyclobutane-1-carboxamide], for which the EC50 lay within 200 to 1000 nM.

On to `C[C@H]1OC[C@H]1C(=O)Nc1c[nH]c2ccc(O[C@H]3C[C@H](c4ccc(C(F)(F)F)cc4)C3)cc12` [Compound 424, (2R,3R)-2-methyl-N-(5-(trans-3-(4-(trifluoromethyl)phenyl)cyclobutoxy)-1H-indol-3-yl)oxetane-3-carboxamide], for which the 50% effective concentration (EC50) fell in the range of 200 to 1000 nM.

For “3-methyl-N-(5-(2-((3aR,5r,6aS)-2-(2,2,2-trifluoroethyl)octahydrocyclopenta[c]pyrrol-5-yl)ethoxy)-1H-indol-3-yl)oxetane-3-carboxamide [Compound 382]”, the EC50 fell in the range of 200 to 1000 nM.

For `CC1(C(=O)Nc2c[nH]c3ccc(OC[C@H]4C[C@@H]5CN(CC(F)(F)F)C[C@@H]5C4)cc23)COC1` [Compound 542, 3-methyl-N-(5-(((3aR,5s,6aS)-2-(2,2,2-trifluoroethyl)octahydrocyclopenta[c]pyrrol-5-yl)methoxy)-1H-indol-3-yl)oxetane-3-carboxamide], the EC50 lay within 200 to 1000 nM.

Take `CC(=O)Nc1c[nH]c2ccc(CCC3(c4ccc(C(F)(F)F)cc4)COC3)cc12` [Compound 508, N-(5-(2-(3-(4-(trifluoromethyl)phenyl)oxetan-3-yl)ethyl)-1H-indol-3-yl)acetamide]: the EC50 lay in the range of 5000 to 100000 nM.

As to `COCCCC(=O)Nc1c[nH]c2ccc(OCC[C@@H]3C[C@@H]4CN(CC(F)(F)F)C[C@@H]4C3)cc12` [Compound 520, 4-methoxy-N-(5-(2-((3aR,5r,6aS)-2-(2,2,2-trifluoroethyl)octahydrocyclopenta[c]pyrrol-5-yl)ethoxy)-1H-indol-3-yl)butanamide], the EC50 is 40 to 200 nM.

Regarding `CC1(C(=O)Nc2c[nH]c3ccc(OCc4ccc(C(F)(F)F)cc4)cc23)CCC1` [Compound 294, 1-methyl-N-(5-((4-(trifluoromethyl)benzyl)oxy)-1H-indol-3-yl)cyclobutane-1-carboxamide], the 50% effective concentration (EC50) is 40 to 200 nM.

As for `CC(=O)Nc1c[nH]c2ccc(OCCC3CN(CC(F)(F)F)CC34CC4)cc12` (stereo not drawn) [Compound 478, N-(5-(2-(5-(2,2,2-trifluoroethyl)-5-azaspiro[2.4]heptan-7-yl)ethoxy)-1H-indol-3-yl)acetamide], the EC50 was 1000 to 5000 nM.

As to `CC(=O)Nc1c[nH]c2ccc(CCOc3cnc(Cl)c(C)c3)cc12` [Compound 557, N-(5-(2-((6-chloro-5-methylpyridin-3-yl)oxy)ethyl)-1H-indol-3-yl)acetamide], the EC50 lay within 1000 to 5000 nM.

On to `O=C(Nc1c[nH]c2ccc(OCc3ccc(C(F)(F)F)cc3)cc12)C1CCOCC1` [Compound 156, N-(5-{[4-(trifluoromethyl)phenyl]methoxy}-1H-indol-3-yl)oxane-4-carboxamide], for which the EC50 is 200 to 1000 nM.

For the compound `O=C(Nc1c[nH]c2ccc(O[C@H]3C[C@H](c4ccc(C(F)(F)F)cc4)C3)cc12)C1(F)CC1` [Compound 489, l-fluoro-N-{5-[(1R,3R)-3-[4-(trifluoromethyl)phenyl]cyclobutoxy]-1H-indol-3-yl}cyclopropane-1-carboxamide], the EC50 was in the range of 200 to 1000 nM.

Regarding `O=C(Nc1c[nH]c2ccc(O[C@H]3C[C@H](c4ccc(C(F)(F)F)cc4)C3)cc12)C1COC1` [Compound 518, N-(5-(trans-3-(4-(trifluoromethyl)phenyl)cyclobutoxy)-1H-indol-3-yl)oxetane-3-carboxamide], the EC50 lay in the range of 200 to 1000 nM.

Turning to `O=C(Nc1c[nH]c2ccc(O[C@H]3C[C@H](c4ccc(C(F)(F)F)cc4)C3)cc12)C1CN(CC(F)(F)F)C1` [Compound 244, 1-(2,2,2-trifluoroethyl)-N-(5-(trans-3-(4-(trifluoromethyl)phenyl)cyclobutoxy)-1H-indol-3-yl)azetidine-3-carboxamide], the EC50 lay in the range of 40 to 200 nM.
